Results reported in patent publication US20070027064A1, “Pharmaceutical compositions for inhibiting metal ion dependent enzymatic activity and methods for the use thereof” (priority 2003, published 2007).

Columns and labels:
[1] = test system: inducible nitric oxide synthetase (iNOS); design: inducible nitric oxide synthetase (iNOS): dose or concentration left out as unconfirmed; conditions: murine macrophages, cited from earlier work
[2] = test system: inducible nitric oxide synthetase; conditions: rat mesangial cells; cited from earlier work
[3] = cited from earlier work
[4] = test system: tumor cells; conditions: 0.0001-0.1 μM TPEN, filters coated with collagen IV
Method: Chemotaxis evaluation was performed in a similar way to basement membrane invasion, with the exception that the filters were coated with […] collagen IV instead of Matrigel.

[5] = molecular target: MMP-9 (Homo sapiens, UniProt P14780)
MMP-9, sequence (P14780 94-707): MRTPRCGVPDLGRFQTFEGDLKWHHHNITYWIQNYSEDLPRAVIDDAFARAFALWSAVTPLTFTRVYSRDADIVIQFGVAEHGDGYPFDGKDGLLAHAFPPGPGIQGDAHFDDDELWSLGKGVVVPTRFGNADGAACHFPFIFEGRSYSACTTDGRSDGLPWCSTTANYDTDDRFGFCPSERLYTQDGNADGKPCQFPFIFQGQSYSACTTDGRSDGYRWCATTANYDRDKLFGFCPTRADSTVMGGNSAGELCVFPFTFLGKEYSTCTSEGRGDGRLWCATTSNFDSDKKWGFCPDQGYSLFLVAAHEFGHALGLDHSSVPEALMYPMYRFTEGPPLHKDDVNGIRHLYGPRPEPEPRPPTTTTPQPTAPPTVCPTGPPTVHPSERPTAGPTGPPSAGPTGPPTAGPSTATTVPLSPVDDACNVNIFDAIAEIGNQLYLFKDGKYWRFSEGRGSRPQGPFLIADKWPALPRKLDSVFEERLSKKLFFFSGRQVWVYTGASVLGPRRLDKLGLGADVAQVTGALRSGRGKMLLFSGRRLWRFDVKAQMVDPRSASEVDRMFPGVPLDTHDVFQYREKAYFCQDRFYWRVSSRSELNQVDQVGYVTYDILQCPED
Method: (§1) Sub-confluent cell cultures were incubated for 6-24 h in serum-free DMEM and the resulted supernatant were analyzed for collagenolytic activity. The collagenolytic activity was determined on a gelatin impregnated (1 mg/ml, Difco, Detroit, Mich.), SDS-PAGE 8% gel, with minor modifications. […] The gels were then incubated for 16 hours at 37° C. in 50 mM Tris, 0.2M NaCl, 5 mM CaCl2, 0.02% Brij 35 (w/v) at pH 7.6. At the end of the incubation period, the gels were stained with 0.5% Coomassie G 250 (Bio-Rad Richmond Calif.) in methanol/acetic acid/H2O (30:10:60). The intensity of the various bands was determined on a computerized densitometer (Molecular Dynamics type 300A).

[6] = molecular target: MMP-2 (Homo sapiens, UniProt P08253)
MMP-2, sequence (P08253 110-660): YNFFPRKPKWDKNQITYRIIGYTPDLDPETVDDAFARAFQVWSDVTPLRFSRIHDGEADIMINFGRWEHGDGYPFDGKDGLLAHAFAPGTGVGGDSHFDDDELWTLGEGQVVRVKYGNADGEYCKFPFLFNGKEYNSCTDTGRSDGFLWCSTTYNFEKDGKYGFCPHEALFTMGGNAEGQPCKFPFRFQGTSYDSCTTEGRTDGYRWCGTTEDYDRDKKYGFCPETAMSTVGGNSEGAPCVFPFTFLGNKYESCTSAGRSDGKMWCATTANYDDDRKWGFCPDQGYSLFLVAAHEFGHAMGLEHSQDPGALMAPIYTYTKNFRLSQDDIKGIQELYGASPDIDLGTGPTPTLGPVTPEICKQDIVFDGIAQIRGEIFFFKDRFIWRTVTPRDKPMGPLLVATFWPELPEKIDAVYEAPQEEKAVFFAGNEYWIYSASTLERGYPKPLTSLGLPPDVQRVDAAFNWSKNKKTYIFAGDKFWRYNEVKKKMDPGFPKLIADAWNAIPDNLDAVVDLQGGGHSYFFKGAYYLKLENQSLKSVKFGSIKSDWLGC
Method: as §1

[7] = test system: cancer cells; conditions: examined over 0.1-10 μM, FIG. 1
Source text: It is recognized that the induction of MMPs is a key event in angiogenesis and metastatic tumor cell invasiveness.

[8] = 6 hours of incubation, HT1080, TPEN 0.001-0.1 micromolar, FIG. 4A
[9] = 24 hours of incubation, HT1080, FIG. 4B

Structure (SMILES)	nitric oxide production ([1]; COL-3 between 2.5 and 10 µg/mL, concentration-dependent)	inducible nitric oxide synthetase (iNOS) ([1]; COL-3 between 2.5 and 10, concentration-dependent)	inducible nitric oxide synthetase protein expression [2]	nitric oxide production [2]	Ion affinity ([3]; rank order of metal ions)	metal binding ([3]; under physiological blood concentration)	chemotactic activity of the cells [4]	MMP-9 activity, % from the control [5, 8] [%]	inhibition of MMP-9 activity after 24 hours [5, 9]	MMP-2 activity, % from the control [6, 8] [%]	inhibition of MMP-2 activity after 24 hours [6, 9]	concentration above which TPEN has a toxic effect [7]
NC(=O)C1=C(O)C[C@@H]2C[C@@H]3Cc4cccc(O)c4C(=O)C3=C(O)[C@]2(O)C1=O [COL-3, 6-demethyl-6-deoxy-4-dedimethylaminotetracycline]	inhibited	inhibited	decrease	decrease								
c1ccc(CN(CCN(Cc2ccccn2)Cc2ccccn2)Cc2ccccn2)nc1 [TPEN, NNN′N′-Tetrakis-(2-pyridyl-methyl)-ethylenediamine]					Zn^2+ > Fe^2+ > Mn^2+ >> Ca^2+ > Mg^2+	binds zinc, iron, and copper but does not bind magnesium and calcium	not affected	64	disappeared	32	disappeared	above 0.1 μM
